What was measured:
in vitro [1] = details: human
[2] = tested on: SARS-CoV-2 (isolate Wuhan-Hu-1); experiment: microbe, parasite or virus in culture; type: cell-based; details: for IC50: Severe acute respiratory syndrome coronavirus 2, Vero C1008, 24 h, read-out: IC50 (half-maximal inhibitory concentration), anti-SARS-CoV-2 activity
in vitro [3] = details: African green monkey
IL-1β = type: cell-based, human
CXCL-10 = type: cell-based, human
SARS-CoV-2 S PsV = experiment: microbe, parasite or virus in culture; type: cell-based
[4] = tested on: SARS-CoV-2 S protein-mediated cell-cell fusion; type: cell-based
IL-6 = type: cell-based, human
3 C-like protease = details: cited from earlier work
papain-like protease = details: cited from earlier work

| Compound | CC50 (in vitro [1]) | SI: selectivity index as CC50/IC50 [2] | IC50 [2] | CC50 (in vitro [3]) | release of IL-1β from THP-1 cells (IL-1β) | release of CXCL-10 from THP-1 cells (CXCL-10) | also measured |
| --- | --- | --- | --- | --- | --- | --- | --- |
| COc1ccc([C@@H]2CC(=O)c3c(O)cc(O)cc3O2)cc1O [HE, Hesperetin] | > 400 µM | > 4.00 | 50 ± 0.66 µM | > 200 µM | – | – | – |
| O=C(/C=C/c1ccc(O)cc1)c1ccc(O)cc1O [IS, Isoliquiritigenin] | – | – | – | – | inhibited the release of both CXCL-10 and IL-1β | inhibited the release of both CXCL-10 and IL-1β | – |
| O=c1cc(-c2ccc(O)c(O)c2)oc2cc(O)cc(O)c12 [LU, Luteolin] | – | – | – | – | – | inhibited the release of CXCL-10 | – |
| O=C1C[C@@H](c2ccc(O)cc2)Oc2cc(O)cc(O)c21 [NA, Naringenin] | – | – | – | – | – | inhibited the release of CXCL-10 | – |
| COc1c(O)cc2oc(-c3ccccc3)cc(=O)c2c1O [OA, Oroxylin A] | > 400 µM | > 6.37 | 31.39 ± 0.07 µM | > 200 µM | inhibited the release of both CXCL-10 and IL-1β | inhibited the release of both CXCL-10 and IL-1β | IC50 (SARS-CoV-2 S PsV; Severe acute respiratory syndrome coronavirus 2, read-out: IC50 against SARS-CoV-2 S PsV infection): 15 ± 1.46 µM; SARS-CoV-2 S protein-mediated cell-cell fusion (syncytium formation) [4]: significantly inhibited |
| Oc1ccc(/C=C/c2cc(O)cc(O)c2)cc1 [RE, Resveratrol] | – | – | – | – | inhibited the release of IL-1β | – | – |
| O=C(O)[C@H]1O[C@@H](Oc2cc3oc(-c4ccc(O)cc4)cc(=O)c3c(O)c2O)[C@H](O)[C@@H](O)[C@@H]1O [SC, Scutellarin] | > 400 µM | > 8.90 | 22.47 ± 0.19 µM | > 200 µM | – | – | inhibitory activity against entry of SARS-CoV-2 S PsV (in words) (SARS-CoV-2 S PsV): inhibits neither the entry of SARS-CoV-2 S PsV; release of IL-6 from THP-1 cells (IL-6): except SC; inhibition of 3 C-like protease activity (3 C-like protease): nor the activity of 3 C-like protease and papain-like protease; inhibition of papain-like protease activity (papain-like protease): nor the activity of 3 C-like protease and papain-like protease |
| COc1c(O)cc2occ(-c3ccc(O)cc3)c(=O)c2c1O [TE, Tectorigenin] | – | – | – | – | inhibited the release of both CXCL-10 and IL-1β | inhibited the release of both CXCL-10 and IL-1β | inhibition of SARS-CoV-2 infection [2]: approximately 48.31% |
